Results from the supplement of paper PMC13380429.

Tests used:
Settings in all cases: 72 h
[1] = test system: HepG2; experiment: relative viability EC50 (midpoint between 100% and the lowest measured viability); higher = less toxic
[2] = test system: Calu-3; experiment: as above
[3] = test system: U2OS; experiment: as above
[4] = test system: Vero E6; experiment: as above
[5] = test system: HepG2; experiment: drug sensitivity score (DSS) for viability; higher = more toxic; extreme values may be limits of the assay
[6] = test system: Calu-3; experiment: as above
[7] = test system: U2OS; experiment: as above
[8] = test system: Vero E6; experiment: as above
[9] = test system: Caco-2; experiment: as above
[10] = test system: HepG2; experiment: cell viability relative to DMSO; higher = less toxic
[11] = test system: Calu-3; experiment: as above
[12] = test system: U2OS; experiment: as above
[13] = test system: Vero E6; experiment: as above
[14] = test system: Caco-2; experiment: as above

Q: Which results are given for `O[C@H]1[C@H](O)[C@@H](O)[C@H](O)[C@@H](O)[C@H]1O` [inositol]?
A: relative viability EC50 [1]: > 10 µM; relative viability EC50 [2]: > 10 µM; relative viability EC50 [3]: > 10 µM; relative viability EC50 [4]: > 10 µM; drug sensitivity score [5]: 0; drug sensitivity score [6]: 0; drug sensitivity score [7]: 0; drug sensitivity score [8]: 0; drug sensitivity score [9]: 1; cell viability ([10]; 1 nM): 123%; cell viability ([10]; 10 nM): 102%; cell viability ([10]; 100 nM): 105%; cell viability ([10]; 1000 nM): 93.3%; cell viability ([10]; 10000 nM): 98.8%; cell viability ([11]; 1 nM): 112%; cell viability ([11]; 10 nM): 94.6%; cell viability ([11]; 100 nM): 104%; cell viability ([11]; 1000 nM): 96.1%; cell viability ([11]; 10000 nM): 100%; cell viability ([12]; 1 nM): 106%; cell viability ([12]; 10 nM): 104%; cell viability ([12]; 100 nM): 96.7%; cell viability ([12]; 1000 nM): 103%; cell viability ([12]; 10000 nM): 101%; cell viability ([13]; 1 nM): 110%; cell viability ([13]; 10 nM): 101%; cell viability ([13]; 100 nM): 98.1%; cell viability ([13]; 1000 nM): 99.4%; cell viability ([13]; 10000 nM): 99.5%; cell viability ([14]; 1 nM): 95.8%; cell viability ([14]; 10 nM): 111%; cell viability ([14]; 100 nM): 91%; cell viability ([14]; 1000 nM): 105%; cell viability ([14]; 10000 nM): 69.8%

Q: What does the source list for `Cc1ccc(C(=O)N(CCCN)[C@@H](c2nc3cc(Cl)ccc3c(=O)n2Cc2ccccc2)C(C)C)cc1` [ispinesib]?
A: relative viability EC50 [1]: 0.0173 µM; relative viability EC50 [2]: 2.29 µM; relative viability EC50 [3]: 0.0446 µM; relative viability EC50 [4]: 0.029 µM; drug sensitivity score [5]: 25.4; drug sensitivity score [6]: 6.9; drug sensitivity score [7]: 19.4; drug sensitivity score [8]: 19.5; drug sensitivity score [9]: 12.1; cell viability ([10]; 1 nM): 98.7%; cell viability ([10]; 10 nM): 55.8%; cell viability ([10]; 100 nM): 38.7%; cell viability ([10]; 1000 nM): 40%; cell viability ([10]; 10000 nM): 18.8%; cell viability ([11]; 1 nM): 97.3%; cell viability ([11]; 10 nM): 88.5%; cell viability ([11]; 100 nM): 90.8%; cell viability ([11]; 1000 nM): 90%; cell viability ([11]; 10000 nM): 5.4%; cell viability ([12]; 1 nM): 104%; cell viability ([12]; 10 nM): 92.1%; cell viability ([12]; 100 nM): 47.6%; cell viability ([12]; 1000 nM): 43.2%; cell viability ([12]; 10000 nM): 31.3%; cell viability ([13]; 1 nM): 103%; cell viability ([13]; 10 nM): 94%; cell viability ([13]; 100 nM): 42.4%; cell viability ([13]; 1000 nM): 40.8%; cell viability ([13]; 10000 nM): 38.1%; cell viability ([14]; 1 nM): 93.7%; cell viability ([14]; 10 nM): 81.5%; cell viability ([14]; 100 nM): 68.8%; cell viability ([14]; 1000 nM): 64%; cell viability ([14]; 10000 nM): 63.1%

Q: What does the source list for `Cc1cccc(C)c1NC(=O)CN1CCN(CCCC(c2ccc(F)cc2)c2ccc(F)cc2)CC1` [lidoflazine]?
A: relative viability EC50 [1]: > 10 µM; relative viability EC50 [2]: > 10 µM; relative viability EC50 [3]: > 10 µM; relative viability EC50 [4]: > 10 µM; drug sensitivity score [5]: 1; drug sensitivity score [6]: 0; drug sensitivity score [7]: 0; drug sensitivity score [8]: 0.2; drug sensitivity score [9]: 1.1; cell viability ([10]; 1 nM): 99.5%; cell viability ([10]; 10 nM): 109%; cell viability ([10]; 100 nM): 108%; cell viability ([10]; 1000 nM): 96.2%; cell viability ([10]; 10000 nM): 80.9%; cell viability ([11]; 1 nM): 106%; cell viability ([11]; 10 nM): 113%; cell viability ([11]; 100 nM): 112%; cell viability ([11]; 1000 nM): 102%; cell viability ([11]; 10000 nM): 88.4%; cell viability ([12]; 1 nM): 105%; cell viability ([12]; 10 nM): 103%; cell viability ([12]; 100 nM): 101%; cell viability ([12]; 1000 nM): 107%; cell viability ([12]; 10000 nM): 92.7%; cell viability ([13]; 1 nM): 117%; cell viability ([13]; 10 nM): 106%; cell viability ([13]; 100 nM): 102%; cell viability ([13]; 1000 nM): 98.2%; cell viability ([13]; 10000 nM): 87.4%; cell viability ([14]; 1 nM): 83.7%; cell viability ([14]; 10 nM): 99.5%; cell viability ([14]; 100 nM): 84.9%; cell viability ([14]; 1000 nM): 105%; cell viability ([14]; 10000 nM): 68.2%
